Test results published in article PMC4757794 (2016).

What was measured:
[1] = test system: matched DNA (melting temperature experiment) (DNA, duplex) ATCGTCTCGGTATAA/TTATACCGAGACGAT; assay: UV melting at 260 nm; details: compound equimolar to DNA
[2] = test system: CC mismatched DNA (melting temperature experiment) (DNA, mismatch bulge abasic) ATCGTCTCGGTATAA/TTATACCCAGACGAT; assay: UV melting at 260 nm; details: compound equimolar to DNA

C1CCC(P(CP(C2CCCCC2)C2CCCCC2)C2CCCCC2)CC1.[Pt+2].[Pt+2].[c-]1ccccc1-c1cccc(-c2ccccn2)n1.[c-]1ccccc1-c1cccc(-c2ccccn2)n1
ΔTm [1]: 0.5 °C | ΔTm [2]: 6.8 °C
